Measurements as given in patent US10040790B2, “Bicyclic heterocycles as FGFR inhibitors” (Incyte Corporation, priority 2013, dated 2018).

Experiments:
Assay type in all cases: biochemical
[1] = target: FGFR2 (Homo sapiens (Human), UniProt P21802); assay: FGFR Enzymatic Assay (FRET peptide phosphorylation), FGFR2; details: ATP 100 μM, enzyme 0.01 nM
Procedure: (§1) The inhibitor potency of the exemplified compounds was measured in an enzyme assay that measures peptide phosphorylation using FRET measurements to detect product formation. Inhibitors were serially diluted in DMSO and a volume of 0.5 μL was transferred to the wells of a 384-well plate. For FGFR3, a 10 μL volume of FGFR3 enzyme (Millipore) diluted in assay buffer (50 mM HEPES, 10 mM MgCl2, 1 mM EGTA, 0.01% Tween-20, 5 mM DTT, pH 7.5) was added to the plate and pre-incubated for 5-10 minutes. Appropriate controls (enzyme blank and enzyme with no inhibitor) were included on the plate. The assay was initiated by the addition of a 10 μL solution containing biotinylated EQEDEPEGDYFEWLE peptide substrate (SEQ ID NO: 1) and ATP (final concentrations of 500 nM and 140 μM respectively) in assay buffer to the wells. The plate was incubated at 25° C. for 1 hr. The reactions were ended with the addition of 10 μL/well of quench solution (50 mM Tris, 150 mM NaCl, 0.5 mg/mL BSA, pH 7.8; 30 mM EDTA with Perkin Elmer Lance Reagents at 3.75 nM Eu-antibody PY20 and 180 nM APC-Streptavidin). The plate was allowed to equilibrate for ˜1 hr before scanning the wells on a PheraStar plate reader (BMG Labtech).
(§2) FGFR1 and FGFR2 were measured under equivalent conditions with the following changes in enzyme and ATP concentrations: FGFR1, 0.02 nM and 210 μM, respectively and FGFR2, 0.01 nM and 100 μM, respectively. The enzymes were purchased from Millipore or Invitrogen.
(§3) GraphPad prism3 was used to analyze the data. The IC50 values were derived by fitting the data to the equation for a sigmoidal dose-response with a variable slope. Y=Bottom+(Top−Bottom)/(1+10^((Log IC50−X)*HillSlope)) where X is the logarithm of concentration and Y is the response.

[2] = target: FGFR3 (Homo sapiens (Human), UniProt P22607); assay: FGFR Enzymatic Assay (FRET peptide phosphorylation), FGFR3; details: ATP 140 μM
Chain of FGFR3 (P22607 23-806): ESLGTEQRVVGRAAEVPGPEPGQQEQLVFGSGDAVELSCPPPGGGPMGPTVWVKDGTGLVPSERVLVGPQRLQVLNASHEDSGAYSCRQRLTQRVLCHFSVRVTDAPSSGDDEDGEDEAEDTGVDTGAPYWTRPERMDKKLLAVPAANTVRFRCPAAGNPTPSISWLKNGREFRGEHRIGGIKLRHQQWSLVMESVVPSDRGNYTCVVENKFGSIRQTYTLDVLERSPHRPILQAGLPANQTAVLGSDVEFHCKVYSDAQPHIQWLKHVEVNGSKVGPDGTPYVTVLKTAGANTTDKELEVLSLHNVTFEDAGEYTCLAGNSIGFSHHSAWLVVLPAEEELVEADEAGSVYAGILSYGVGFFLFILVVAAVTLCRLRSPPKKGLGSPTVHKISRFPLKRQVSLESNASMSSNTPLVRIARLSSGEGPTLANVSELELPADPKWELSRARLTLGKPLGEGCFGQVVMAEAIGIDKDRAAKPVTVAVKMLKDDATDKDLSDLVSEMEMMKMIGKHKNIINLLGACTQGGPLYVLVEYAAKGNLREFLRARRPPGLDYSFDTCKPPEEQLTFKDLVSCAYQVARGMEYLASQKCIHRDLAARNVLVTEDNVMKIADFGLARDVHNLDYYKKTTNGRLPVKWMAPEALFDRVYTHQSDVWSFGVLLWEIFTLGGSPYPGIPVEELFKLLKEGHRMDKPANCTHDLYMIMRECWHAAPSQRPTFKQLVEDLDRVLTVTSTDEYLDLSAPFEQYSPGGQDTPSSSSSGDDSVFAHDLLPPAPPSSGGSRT
Procedure: as §1, §3

[3] = target: FGFR1 (Homo sapiens (Human), UniProt P11362); assay: FGFR Enzymatic Assay (FRET peptide phosphorylation), FGFR1; details: ATP 210 μM, enzyme 0.02 nM
Chain of FGFR1 (P11362 22-822): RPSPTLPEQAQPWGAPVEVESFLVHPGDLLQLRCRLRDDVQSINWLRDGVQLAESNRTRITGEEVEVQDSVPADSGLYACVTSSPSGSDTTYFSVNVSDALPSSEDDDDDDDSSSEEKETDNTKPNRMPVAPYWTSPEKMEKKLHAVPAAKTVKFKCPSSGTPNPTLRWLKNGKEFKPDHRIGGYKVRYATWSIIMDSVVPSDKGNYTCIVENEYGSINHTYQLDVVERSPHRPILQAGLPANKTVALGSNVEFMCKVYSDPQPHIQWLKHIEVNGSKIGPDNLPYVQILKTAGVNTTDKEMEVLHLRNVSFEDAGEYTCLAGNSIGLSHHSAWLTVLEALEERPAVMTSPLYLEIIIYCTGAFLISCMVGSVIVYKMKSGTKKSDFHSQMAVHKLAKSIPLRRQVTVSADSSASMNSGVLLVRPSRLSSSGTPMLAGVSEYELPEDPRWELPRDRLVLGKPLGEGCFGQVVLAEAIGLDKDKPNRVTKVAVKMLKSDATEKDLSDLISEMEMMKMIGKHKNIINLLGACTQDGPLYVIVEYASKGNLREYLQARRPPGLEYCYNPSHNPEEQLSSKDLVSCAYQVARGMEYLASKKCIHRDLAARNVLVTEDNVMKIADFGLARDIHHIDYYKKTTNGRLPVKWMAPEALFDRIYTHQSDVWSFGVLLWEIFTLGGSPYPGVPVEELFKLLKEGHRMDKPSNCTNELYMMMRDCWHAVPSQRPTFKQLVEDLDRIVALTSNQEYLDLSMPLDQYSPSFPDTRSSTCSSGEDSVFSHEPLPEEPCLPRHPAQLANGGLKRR
Procedure: as §1, §2, §3

Measured: IC50

Chain of FGFR2 (P21802 22-821): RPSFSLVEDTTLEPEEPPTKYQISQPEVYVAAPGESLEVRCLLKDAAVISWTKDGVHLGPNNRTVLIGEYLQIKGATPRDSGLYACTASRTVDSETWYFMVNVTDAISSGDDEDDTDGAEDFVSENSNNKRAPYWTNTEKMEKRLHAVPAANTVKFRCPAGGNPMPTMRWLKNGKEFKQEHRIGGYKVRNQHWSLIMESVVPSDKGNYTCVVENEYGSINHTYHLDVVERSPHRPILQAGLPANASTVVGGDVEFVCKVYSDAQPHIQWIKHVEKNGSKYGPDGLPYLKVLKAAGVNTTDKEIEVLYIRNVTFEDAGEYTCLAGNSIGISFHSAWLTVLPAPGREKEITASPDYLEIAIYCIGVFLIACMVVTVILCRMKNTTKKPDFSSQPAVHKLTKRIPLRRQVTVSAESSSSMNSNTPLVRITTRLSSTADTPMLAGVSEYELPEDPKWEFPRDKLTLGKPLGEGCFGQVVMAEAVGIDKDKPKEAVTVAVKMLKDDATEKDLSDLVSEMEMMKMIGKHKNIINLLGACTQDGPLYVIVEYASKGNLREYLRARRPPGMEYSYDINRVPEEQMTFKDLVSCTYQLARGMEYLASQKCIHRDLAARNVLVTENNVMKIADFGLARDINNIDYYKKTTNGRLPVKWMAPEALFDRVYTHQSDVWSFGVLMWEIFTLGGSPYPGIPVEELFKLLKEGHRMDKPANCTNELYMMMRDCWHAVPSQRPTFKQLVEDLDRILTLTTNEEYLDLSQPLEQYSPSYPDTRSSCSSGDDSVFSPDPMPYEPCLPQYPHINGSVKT

COc1cc(OC)c(F)c(N2Cc3cnc(Nc4cnn(C)c4)cc3C3(CC3)C2=O)c1F [Example 36, 2′-(2,6-difluoro-3,5-dimethoxyphenyl)-6′-(1-methyl-1H-pyrazol-4-ylamino)-1′H-spiro[cyclopropane-1,4′-[2,7]naphthyridin]-3′(2′H)-one]
< 100 nM: all assays above

COc1cc(OC)c(F)c(N2Cc3cnc(NCc4cnn(C)c4)cc3C3(CC3)C2=O)c1F [Example 37, 2′-(2,6-difluoro-3,5-dimethoxyphenyl)-6′-((1-methyl-1H-pyrazol-4-yl)methylamino)-1′H-spiro[cyclopropane-1,4′-[2,7]naphthyridin]-3′(2′H)-one]
< 100 nM: all assays above

COc1cc(OC)c(F)c(N2Cc3cnc(N[C@H](C)c4ccccc4)cc3C3(CC3)C2=O)c1F [Example 38, (R)-2′-(2,6-difluoro-3,5-dimethoxyphenyl)-6′-(1-phenylethylamino)-1′H-spiro[cyclopropane-1,4′-[2,7]naphthyridin]-3′(2′H)-one]
< 100 nM: all assays above

COc1cc(OC)c(F)c(N2Cc3cnc(NC4CCCCC4)cc3C3(CC3)C2=O)c1F [Example 39, 6′-(cyclohexylamino)-2′-(2,6-difluoro-3,5-dimethoxyphenyl)-1′H-spiro[cyclopropane-1,4′-[2,7]naphthyridin]-3′(2′H)-one]
< 100 nM: all assays above

COc1cc(OC)c(F)c(N2Cc3cnc(N[C@H]4CC[C@H](O)CC4)cc3C3(CC3)C2=O)c1F [Example 40, 2′-(2,6-difluoro-3,5-dimethoxyphenyl)-6′-(trans-4-hydroxycyclohexylamino)-1′H-spiro[cyclopropane-1,4′-[2,7]naphthyridin]-3′(2′H)-one]
< 100 nM: all assays above

COc1cc(OC)c(F)c(N2Cc3cnc(NC4CC4)cc3C3(CC3)C2=O)c1F [Example 41, 6′-(cyclopropylamino)-2′-(2,6-difluoro-3,5-dimethoxyphenyl)-1′H-spiro[cyclopropane-1,4′-[2,7]naphthyridin]-3′(2′H)-one]
< 100 nM: all assays above

COc1cc(OC)c(F)c(N2Cc3cnc(NC4CCC4)cc3C3(CC3)C2=O)c1F [Example 42, 6′-(cyclobutylamino)-2′-(2,6-difluoro-3,5-dimethoxyphenyl)-1′H-spiro[cyclopropane-1,4′-[2,7]naphthyridin]-3′(2′H)-one]
< 100 nM: all assays above

COc1cc(OC)c(F)c(N2Cc3cnc(NC4CC(F)(F)C4)cc3C3(CC3)C2=O)c1F [Example 43, 2′-(2,6-difluoro-3,5-dimethoxyphenyl)-6′-(3,3-difluorocyclobutylamino)-1′H-spiro[cyclopropane-1,4′-[2,7]naphthyridin]-3′(2′H)-one]
< 100 nM: all assays above

COc1cc(OC)c(F)c(N2Cc3cnc(NC4CCN(C)CC4)cc3C3(CC3)C2=O)c1F [Example 44, 2′-(2,6-difluoro-3,5-dimethoxyphenyl)-6′-(1-methylpiperidin-4-ylamino)-1′H-spiro[cyclopropane-1,4′-[2,7]naphthyridin]-3′(2′H)-one]
< 100 nM: all assays above

COc1cc(OC)c(F)c(N2Cc3cnc(N)c(C)c3N(c3ccccc3F)C2=O)c1F [Example 45, 7-amino-3-(2,6-difluoro-3,5-dimethoxyphenyl)-1-(2-fluorophenyl)-8-methyl-3,4-dihydropyrido[4,3-d]pyrimidin-2(1H)-one]
< 100 nM: all assays above

COc1cc(OC)c(F)c(N2Cc3cnc(N)c(C)c3N(c3nnn(C)n3)C2=O)c1F [Example 46, 7-amino-3-(2,6-difluoro-3,5-dimethoxyphenyl)-8-methyl-1-(2-methyl-2H-tetrazol-5-yl)-3,4-dihydropyrido[4,3-d]pyrimidin-2(1H)-one]
< 100 nM: all assays above

COc1cc(OC)c(F)c(N2Cc3cnc(N)c(C)c3N(Cc3cnn(C)c3)C2=O)c1F [Example 47, 7-amino-3-(2,6-difluoro-3,5-dimethoxyphenyl)-8-methyl-1-[(1-methyl-1H-pyrazol-4-yl)methyl]-3,4-dihydropyrido[4,3-d]pyrimidin-2(1H)-one]
< 100 nM: all assays above

COC(=O)Nc1ncc2c(c1C)N(C)C(=O)N(c1c(F)c(OC)cc(OC)c1F)C2 [Example 48, methyl [3-(2,6-difluoro-3,5-dimethoxyphenyl)-1,8-dimethyl-2-oxo-1,2,3,4-tetrahydropyrido [4,3-d]pyrimidin-7-yl]carbamate]
< 100 nM: all assays above

COc1cc(OC)c(F)c(N2Cc3cnc(N)c(C#N)c3N(CC3CC3)C2=O)c1F [Example 49, 7-amino-1-(cyclopropylmethyl)-3-(2,6-difluoro-3,5-dimethoxyphenyl)-2-oxo-1,2,3,4-tetrahydropyrido[4,3-d]pyrimidine-8-carbonitrile]
< 100 nM: all assays above

COc1cc(OC)c(F)c(N2Cc3cnc(N)c(C#N)c3N(C3CCCC3)C2=O)c1F [Example 50, 7-amino-1-cyclopentyl-3-(2,6-difluoro-3,5-dimethoxyphenyl)-2-oxo-1,2,3,4-tetrahydropyrido[4,3-d]pyrimidine-8-carbonitrile]
< 100 nM: all assays above

COc1cc(OC)c(F)c(N2Cc3cnc(N)c(C#N)c3N(Cc3cnn(C)c3)C2=O)c1F [Example 51, 7-amino-3-(2,6-difluoro-3,5-dimethoxyphenyl)-1-[(1-methyl-1H-pyrazol-4-yl)methyl]-2-oxo-1,2,3,4-tetrahydropyrido[4,3-d]pyrimidine-8-carbonitrile]
< 100 nM: all assays above

COc1cc(OC)c(F)c(N2Cc3cnc(N)c(C#N)c3N(Cc3cc(F)cc(F)c3)C2=O)c1F [Example 52, 7-amino-1-(3,5-difluorobenzyl)-3-(2,6-difluoro-3,5-dimethoxyphenyl)-2-oxo-1,2,3,4-tetrahydropyrido[4,3-d]pyrimidine-8-carbonitrile]
< 100 nM: all assays above

COc1cc(OC)c(F)c(N2Cc3cnc(N)c(C#N)c3N(c3ccccc3F)C2=O)c1F [Example 53, 7-amino-3-(2,6-difluoro-3,5-dimethoxyphenyl)-1-(2-fluorophenyl)-2-oxo-1,2,3,4-tetrahydropyrido[4,3-d]pyrimidine-8-carbonitrile]
< 100 nM: all assays above

COc1cc(OC)c(F)c(N2Cc3cnc(N)c(Cl)c3N(C)C2=O)c1F [Example 54, 7-amino-8-chloro-3-(2,6-difluoro-3,5-dimethoxyphenyl)-1-methyl-3,4-dihydropyrido[4,3-d]pyrimidin-2(1H)-one]
< 100 nM: all assays above
